Reference: publication PMC9995496, “A screen for MeCP2-TBL1 interaction inhibitors using a luminescence-based assay” (Scientific Reports, 2023)
Structures can show the parent of a compound that is named as a salt. Where two headings read alike, the source gives them in different places.

Tested on: PRKACA-PRKAR2A interaction (SmBiT-PRKACA / LgBiT-PRKAR2A), protein kinase A
Parameters: NanoLuc complementation counter-screen in cell extract, PRKACA with PRKAR2A, loss of luminescence, detects NanoLuc interference
Conditions: 0.5 h, 20 µM, inhibitor
[1] = counter-screen for NanoLuc interference

Structure (SMILES)	Inh (PKA) [1]	other results
O=S(=O)(O)c1ccc2cc(N=Nc3cc(S(=O)(=O)O)c4cccnc4c3O)ccc2c1 [UM0141859:01, NSC 87877]	48.34%	
OC[C@H]1O[C@@H](c2ccc(Cl)c(Cc3ccc(O[C@H]4CCOC4)cc3)c2)[C@H](O)[C@@H](O)[C@@H]1O [UM0141860:01, Empagliflozin (BI 10773)]	6.685%	
CC1(C)CNc2cc(NC(=O)c3cccnc3NCc3ccncc3)ccc21 [UM0141862:01, Motesanib Diphosphate (AMG-706)]	38.44%	
CC(C)(C)c1cc(C(C)(C)C)c(NC(=O)c2c[nH]c3ccccc3c2=O)cc1O [UM0141863:01, Ivacaftor (VX-770)]	12.69%	
OCCn1cc(-c2ccc3c(c2)CC/C3=N\O)c(-c2ccncc2)n1 [UM0141866:01, GDC-0879]	3.817%	
CCn1c(-c2nonc2N)nc2c(C#CC(C)(C)O)ncc(OC[C@H]3CCCNC3)c21 [UM0141867:01, GSK690693]	29.62%	
COc1ccc(-c2ccc3c(N4CCOCC4)nc(N4C[C@@H](C)O[C@@H](C)C4)nc3n2)cc1CO [UM0141868:01, KU-0063794]	1.476%	
Cn1cc(-c2ccc3nnc(C(F)(F)c4ccc5ncccc5c4)n3n2)cn1 [UM0141869:01, JNJ-38877605]	8.714%	
OCCn1cc(-c2cnc3nnn(Cc4ccc5ncccc5c4)c3n2)cn1 [UM0141870:01, PF-04217903]	1.023%	
CCc1c2c(nc3ccc(OC(=O)N4CCC(N5CCCCC5)CC4)cc13)-c1cc3c(c(=O)n1C2)COC(=O)[C@]3(O)CC [UM0141872:01, Irinotecan]	0.8933%	
O=C1NC(=O)/C(=C\c2ccc3nccnc3c2)S1 [UM0141873:01, AS-605240]	0.3149%	
COC(=O)[C@H](c1ccccc1Cl)N1CCc2sccc2C1 [UM0141874:01, Clopidogrel]	72.93%	
C[C@H](Cn1cnc2c(N)ncnc21)OCP(=O)(O)O [UM0141875:01, Tenofovir]	-0.0985%	
O=P(O)(O)C(O)(Cc1cccnc1)P(=O)(O)O [UM0141876:01, Risedronate Sodium]	-0.1627%	
CNS(=O)(=O)Cc1ccc2[nH]cc(CCN(C)C)c2c1 [UM0141877:01, Sumatriptan Succinate]	0.457%	
CCOc1cc(CC(=O)N[C@@H](CC(C)C)c2ccccc2N2CCCCC2)ccc1C(=O)O [UM0141879:01, Repaglinide]	5.467%	
COc1c(N2C[C@@H]3CCCN[C@@H]3C2)c(F)cc2c(=O)c(C(=O)O)cn(C3CC3)c12 [UM0141881:01, Moxifloxacin HCl]	1.366%	
Cc1ccc(C(=O)N(CCCN)[C@@H](c2nc3cc(Cl)ccc3c(=O)n2Cc2ccccc2)C(C)C)cc1 [UM0141883:01, Ispinesib (SB-715992)]	12.18%	
COc1ccc(C(CN(C)C)C2(O)CCCCC2)cc1 (stereo not shown) [UM0141884:01, Venlafaxine]	-0.1027%	
CC(c1cc2ccccc2s1)N(O)C(N)=O (stereo not shown) [UM0141885:01, Zileuton]	2.302%	
c1cnc2cc3c(cc2n1)[C@@H]1CNC[C@H]3C1 [UM0141886:01, Varenicline Tartrate]	1.343%	

Structure (SMILES)	Inh (PKA) [1]	other results
COc1ccc(S(=O)(=O)N(C(C)=O)c2ccccc2/C=C/c2cc[n+]([O-])cc2)cc1 [UM0141887:01, HMN-214]	4.215%	
Nc1nc(F)nc2c1ncn2[C@@H]1O[C@H](CO)[C@@H](O)[C@@H]1O [UM0141888:01, Fludarabine]	1.153%	
CC(=O)Nc1nc(C)c(-c2ccc(Cl)c(S(=O)(=O)NCCO)c2)s1 [UM0141889:01, PIK-93]	6.642%	
CCN1CCN(Cc2ccc(-c3cc4c(N[C@H](C)c5ccccc5)ncnc4[nH]3)cc2)CC1 [UM0141890:01, AEE788 (NVP-AEE788)]	7.14%	
CC(C)CC(=O)Nc1n[nH]c2c1CN(C(=O)C1CCN(C)CC1)C2(C)C [UM0141891:01, PHA-793887]	3.326%	
Cc1ccc(C(=O)Nc2ccc(CN3CCN(C)CC3)c(C(F)(F)F)c2)cc1C#Cc1cnc2cccnn12 [UM0141892:01, Ponatinib (AP24534)]	38.47%	
Cc1cc([C@@H](C)Nc2ccccc2C(=O)O)c2nc(N3CCOCC3)cc(=O)n2c1 [UM0141893:01, AZD6482]	55.75%	
O=C(NCc1ccccc1)c1csc(Nc2ccncn2)n1 [UM0141894:01, Thiazovivin]	-0.9736%	
CC(C)(C)Cn1c(N)nc2ccc(-c3[nH]c(C(C)(C)C)nc3-c3ccc(F)cc3)nc21 [UM0141895:01, LY2228820]	34.84%	
O=C(NC[C@H](O)CO)c1ccncc1Nc1ccc(I)cc1F [UM0141896:01, Pimasertib (AS-703026)]	20.8%	
Cc1cccc(-c2[nH]c(C(C)(C)C)nc2-c2ccc3nccnc3c2)n1 [UM0141897:01, SB525334]	4.915%	
CC1=C(C(=O)Nc2cc3cn[nH]c3cc2F)C(c2ccc(C(F)(F)F)cc2)CC(=O)N1 (stereo not shown) [UM0141898:01, GSK429286A]	8.844%	
Clc1ccc(C2(c3ccc(-c4cn[nH]c4)cc3)CCNCC2)cc1 [UM0141900:01, AT7867]	29.71%	
CCOc1ccn(-c2ccc(F)cc2)c(=O)c1C(=O)Nc1ccc(Oc2ccnc(N)c2Cl)c(F)c1 [UM0141902:01, BMS-777607]	68.15%	
O=C(NOCC(O)CO)c1cc(Br)c(F)c(F)c1Nc1ccc(I)cc1F (stereo not shown) [UM0141903:01, PD318088]	48.65%	
CCOC(=O)c1ccc(C#Cc2ccc3c(c2)C(C)(C)CCS3)nc1 [UM0141904:01, Tazarotene]	17.58%	
O=C(NC1CCNCC1)c1n[nH]cc1NC(=O)c1c(Cl)cccc1Cl [UM0141905:01, AT7519]	0.5831%	
O=S(=O)(c1cccc2cnccc12)N1CCCNCC1 [UM0141906:01, Fasudil (HA-1077) HCl]	33.96%	
CCCNC(=O)Nc1ccc(Oc2ncnc3cc(OC)c(OC)cc23)cc1Cl [UM0141907:01, KRN 633]	0.03165%	
O=C(O)c1cc(/N=N/c2ccc(S(=O)(=O)Nc3ccccn3)cc2)ccc1O [UM0141908:01, Sulfasalazine]	56.84%	
Nc1ccn(C[C@@H](CO)OCP(=O)(O)O)c(=O)n1 [UM0141909:01, Cidofovir]	-0.4944%	

Structure (SMILES)	Inh (PKA) [1]	other results
CN(C)Cc1cccc(N/C(=C2\C(=O)Nc3cc(C(N)=O)ccc32)c2ccccc2)c1 [UM0141912:01, BIX 02188]	13.5%	
CN1CCCCC1Cn1cc(C(=O)c2cc([N+](=O)[O-])ccc2I)c2ccccc21 (stereo not shown) [UM0141913:01, AM1241]		Inh (PKA): 12.3%
CCOc1ccc(Cc2cc([C@@H]3O[C@H](CO)[C@@H](O)[C@H](O)[C@H]3O)ccc2Cl)cc1 [UM0141914:01, Dapagliflozin]	0.9919%	
COc1cc(Nc2ncc(F)c(Nc3ccc4c(n3)NC(=O)C(C)(C)O4)n2)cc(OC)c1OC [UM0141915:01, R406 (free base)]		Inh (PKA) (counter-screen for NanoLuc interference, Inh (PKA)): 51.96%
CCCCCCCCCCCCc1ccc(S(=O)(=O)Nc2nncs2)cc1 [UM0141916:01, PHT-427]	11.59%	
Cc1nc(-c2ccc(OCC(C)C)c(C#N)c2)sc1C(=O)O [UM0141917:01, Febuxostat]	17.81%	
COc1ccc2cc(-c3nc(-c4ccc([S+](C)[O-])cc4)[nH]c3-c3ccncc3)ccc2c1 (stereo not shown) [UM0141919:01, Tie2 kinase inhibitor]	68.85%	
CN1C/C(=C/c2ccc(B(O)O)cc2)C(=O)/C(=C\c2ccc(B(O)O)cc2)C1 [UM0141922:01, AM 114]	1.277%	
NCCCC[C@@H]1NC(=O)[C@@H](Cc2ccccc2)NC(=O)[C@H](CC(=O)O)NC(=O)CNC(=O)[C@H](CCCN=C(N)N)NC1=O [UM0141923:01, Cyclo (-RGDfK)]	-1.971%	
COC(=O)C[C@H](NC(=O)[C@@H](NC(=O)c1ccc2ccccc2n1)C(C)C)C(=O)COc1c(F)cccc1F [UM0141924:01, Q-VD(OMe)-OPh]	13.3%	
CO[C@H]1C[C@@H]2CC[C@@H](C)[C@@](O)(O2)C(=O)C(=O)N2CCCC[C@H]2C(=O)O[C@H]([C@H](C)C[C@@H]2CC[C@@H](O)[C@H](OC)C2)CC(=O)[C@H](C)/C=C(\C)[C@@H](O)[C@@H](OC)C(=O)[C@H](C)C[C@H](C)/C=C/C=C/C=C/1C [UM0141925:01, Rapamycin (Sirolimus)]	2.249%	
CCOC(=O)C1=C(N)Oc2ccc(Br)cc2[C@H]1[C@H](C#N)C(=O)OCC [UM0141926:01, HA14-1]	18.52%	
CO[C@H]1C[C@@H]2CC[C@@H](C)[C@@](O)(O2)C(=O)C(=O)N2CCCC[C@H]2C(=O)O[C@H]([C@H](C)C[C@@H]2CC[C@@H](OCCO)[C@H](OC)C2)CC(=O)[C@H](C)/C=C(\C)[C@@H](O)[C@@H](OC)C(=O)[C@H](C)C[C@H](C)/C=C/C=C/C=C/1C [UM0141927:01, Everolimus (RAD001)]	0.7572%	
CC(NC(=O)[C@H](Cc1ccccc1)NC(=O)OCc1ccccc1)C(=O)CF (stereo partly shown) [UM0141928:01, Z-FA-FMK]	4.07%	
Nc1ccccc1NC(=O)c1ccc(CNC(=O)OCc2cccnc2)cc1 [UM0141929:01, Entinostat (MS-275,SNDX-275)]	3.043%	
CC(C)CCCCC(=O)N[C@@H](CO)C(=O)N[C@@H](CC(C)C)C(=O)[C@@]1(CO)CO1 [UM0141930:01, Dihydroeponemycin]	3.421%	
C/C=C1\NC(=O)[C@H]2CSSCC/C=C/[C@H](CC(=O)N[C@H](C(C)C)C(=O)N2)OC(=O)[C@H](C(C)C)NC1=O [UM0141931:01, Romidepsin (FK228, depsipeptide)]	2.202%	
CN(C(=O)c1cc2ccccc2cc1C(=O)C(c1cccc2ccccc12)P(=O)(O)O)C1CCN(C(=O)c2ccccc2)CC1 (stereo not shown) [UM0141932:01, Cathepsin G Inhibitor I]	16.06%	
C=CCc1cccc(/C=N/NC(=O)CN2CCN(Cc3ccccc3)CC2)c1O [UM0141933:01, PAC-1]	9.934%	
